Legend:
[1] = format: physicochemical
Experimental: Solubility Studies of the Esters that are Mentioned in Examples 1 to 6
In the following table, the solubility of compounds 1 to 6 is depicted in comparison to unesterified reference compound 1 (Z)-6'-(4-cyanophenyl)-9,11α-dihydro-17β-hydroxy-17α-(3-hydroxy-1-propenyl)-4'H-naphtho[3',2',1':10,9,11]estra-4-en-3-one (Example 1 in DE-A 4216003). For solubility, the temperature is indicated in °C., in which 50 mg of substance is dissolved in 1 ml of a 1:4 benzyl benzoate/castor oil mixture.

[2] = test system: NMU-induced breast tumor of rats; assay: Influence of the tumor growth in N-Methyl-N-nitrosourea (NMU) model in rats; format: in vivo, rat (Sprague-Dawley); conditions: p.o., 6 times per week, various dosages; vs. reference compound 3
Experimental: Influence of the Tumor Growth in N-Methyl-N-nitrosourea (NMU)--Model in Rats
The growth of the NUM-induced breast tumor of rats is largely dependent on estrogens and gestagens and less on prolactin. Estrogen and progesterone antagonists result in inhibiting tumor growth.
Female rats (Sprague-Dawley), 55 (±3) days old; at least 9 animals per group.
The animals receive 50 mg/kg of NMU on a one-time basis. Then, the animals are checked once a week by palpation for tumor development. About 6 to 8 weeks after NMU treatment, one or more tumors develop per animal. At a minimum size of 150 mm^2 /tumor/animal, treatment (6 times per week) begins with the test substance, the determination of body weight and tumor size (with the aid of a sliding gauge; once per week).
The results for compound 1 are graphically depicted in the following figures for various dosages in each case in comparison to the untreated control, an ovariectomy group as well as reference compound 3, (Z)-6'-(4-cyanophenyl)-9,11α-dihydro-17β-hydroxy-17α-[3-(1-oxo-2-methylpropoxy)-1-propenyl]-4'H-naphtho[3',2',1':10,9,11]estr-4-en-3-one. […] This is surprising because of the only slight structural differences. [drawing 5] Tumor-Inhibiting Action on the Hormone-Sensitive Human Breast Cancer Cell Line ZR-75.

[3] = test system: human, tamoxifen-resistant ZR-75 breast cancer; assay: Tumor-inhibiting action on human, tamoxifen-resistant ZR-75 breast cancer in nude mice; format: in vivo; conditions: s.c., 8 weeks, vs. untreated control; graph only
Experimental: Breast cancer cell line ZR-75 is an estrogen- and progesterone receptor-positive human line, which can be transplanted serially in the thymic aplastic nude mouse. […] An underline that is used here developed a tamoxifen resistance after a prolonged treatment period.
Female nude/nude mice, 4 weeks old.
Formulation and Administration of Test Substances:
The test substances are dissolved in benzyl benzoate and castor oil (1+4), and the one-time dose is administered at a volume of 0.1 ml s.c. Treatment begins about 7 weeks after implantation (treatment of established tumors). The treatment time is at most 10 weeks.
The tumor fragments of several donor animals are implanted in the animals s.c. on both sides in the flanks. On the day of implantation and on day 60, all animals are implanted with a tamoxifen-releasing pellet (5 mg).
The mice are randomized 7 weeks after implantation of the tumors, and the treatment is begun and carried out for 8 weeks.
Tumor growth is determined by determination of the tumor surface area using a sliding gauge. The tumor surface area is calculated from the product of the longest diameter of the tumor and the diameter that is perpendicular to said longest diameter. At the end of the test, the animals are killed, the tumors are prepared outside and weighed.

[4] = format: physicochemical; remark: listed apart in the source
Experimental: Studies on Hydrolytic Stability of the Esters According to the Invention
The hydrolytic stability of the esters under strongly basic conditions can be used to assess whether the compounds have adequate stability under physiological conditions.
In each case, 10 mg of compounds 1, 3 and 4 was dissolved at 23° C. in 10 ml of dioxane and mixed with 1 ml of a 1N aqueous sodium hydroxide solution. In each case, 11 samples were drawn, acidified to pH 6 and the ester:alcohol ratio was determined per HPLC. In the graphic visualization,the portion of ester is depicted in percent as a function of the saponification period in hours.

[5] = test system: breast cancer cell line ZR-75; conditions: standard treatment; cited from earlier work

Question: Which results are given for `CC(C)CC(=O)OC/C=C\[C@]1(O)CC[C@H]2[C@@H]3CCC4=CC(=O)CC[C@@]45Cc4cc(-c6ccc(C#N)cc6)ccc4[C@@H](C[C@@]21C)[C@@H]35` [Compound 1, (Z)-6'-(4-Cyanophenyl)-9,11α-dihydro-17β-hydroxy-17α-[3-(1-oxo-3-methylbutoxy)-1-propenyl]-4'H-naphtho[3',2',1':10,9,11]estr-4-en-3-one]?
Answer: Solubility (temperature at which 50 mg of substance is dissolved in 1 ml) [1]: 50 °C; tumor-inhibiting action [2]: tumor-inhibiting action that is superior to that of reference compound 3; inhibition of the course of growth of the tumors [3]: inhibition of the course of growth of the tumors; stability compared to reference compound 3 [4]: significantly improved compared to reference compound 3; stability under strongly basic conditions [4]: very good stability

Question: With `CC(C)C(=O)OCC/C=C\[C@]1(O)CC[C@H]2[C@@H]3CCC4=CC(=O)CC[C@@]45Cc4cc(-c6ccc(C#N)cc6)ccc4[C@@H](C[C@@]21C)[C@@H]35` [Compound 2, (Z)-6'-(4-Cyanophenyl)-9,11α-dihydro-17β-hydroxy-17α-[4-(1-oxo-2-methylpropoxy)-1-butenyl]-4'H-naphtho[3',2',1':10,9,11]estr-4-en-3-one] as the molecule, how does the “Solubility (temperature at which 50 mg of substance is dissolved in 1 ml)” value (“Solubility” below) [1] read?
Answer: The value was 23 °C.

Question: For `CC(C)CC(=O)OCC/C=C\[C@]1(O)CC[C@H]2[C@@H]3CCC4=CC(=O)CC[C@@]45Cc4cc(-c6ccc(C#N)cc6)ccc4[C@@H](C[C@@]21C)[C@@H]35` [Compound 3, (Z)-6'-(4-cyanophenyl)-9,11α-dihydro-17β-hydroxy-17α-[4-(1-oxo-3-methylbutoxy)-1-butenyl]-4'H-naphtho[3',2',1':10,9,11]estr-4-en-3-one], which “Solubility” value [1] is on record?
Answer: The value was 23 °C.

Question: What about the “stability compared to reference compound 3” value [4] of the same molecule?
Answer: Its value is “significantly improved compared to reference compound 3”.

Question: What about the “stability under strongly basic conditions” value [4] of the same molecule?
Answer: The value was “very good stability”.

Question: With `CC(C)CC(=O)OCC/C=C\[C@]1(O)CC[C@H]2[C@@H]3CCC4=CC(=O)CC[C@@]45Cc4cc(-c6ccc(F)cc6)ccc4[C@@H](C[C@@]21C)[C@@H]35` [Compound 4, (Z)-9,11α-dihydro-6'-(4-fluorophenyl)-17β-hydroxy-17α-[4-(1-oxo-3-methylbutoxy)-1-butenyl]-4'H-naphtho[3',2',1':10,9,11]estr-4-en-3-one] as the molecule, how does the “Solubility” value [1] read?
Answer: The value was 50 °C.

Question: What about the “stability compared to reference compound 3” value [4] of the same molecule?
Answer: The value was “significantly improved compared to reference compound 3”.

Question: What about the “stability under strongly basic conditions” value [4] of the same molecule?
Answer: Its value is “very good stability”.

Question: With `CC(C)CC(=O)OC/C=C\[C@]1(O)C=C[C@H]2[C@@H]3CCC4=CC(=O)CC[C@@]45Cc4cc(-c6ccc(C#N)cc6)ccc4[C@@H](C[C@@]21C)[C@@H]35` [Compound 5, (Z)-6'-(4-Cyanophenyl)-9,11α-dihydro-17β-hydroxy-17α-[3-(1-oxo-3-methylbutoxy)-1-propenyl]-4'H-naphtho[3',2',1':10,9,11]estra-4,15-dien-3-one] as the molecule, how does the “Solubility” value [1] read?
Answer: The value was 23 °C.

Question: For `CC(C)C(=O)OC/C=C\[C@]1(O)C=C[C@H]2[C@@H]3CCC4=CC(=O)CC[C@@]45Cc4cc(-c6ccc(C#N)cc6)ccc4[C@@H](C[C@@]21C)[C@@H]35` [Compound 6, (Z)-6'-(4-Cyanophenyl)-9,11α-dihydro-17β-hydroxy-17α-[3-(1-oxo-2-methylpropoxy)-1-propenyl]-4'H-naphtho[3',2',1':10,9,11]estra-4,15-dien-3-one], which “Solubility” value [1] is on record?
Answer: The value was < 50 °C.

Question: Which “Solubility” value [1] does the source give for `C[C@]12C[C@@H]3c4ccc(-c5ccc(C#N)cc5)cc4C[C@]45CCC(=O)C=C4CC[C@H]([C@H]35)[C@@H]1CC[C@@]2(O)/C=C\CO` [Reference Compound 1, (Z)-6'-(4-cyanophenyl)-9,11α-dihydro-17β-hydroxy-17α-(3-hydroxy-1-propenyl)-4'H-naphtho[3',2',1':10,9,11]estra-4-en-3-one, reference compound] here?
Answer: The value was > 100 °C.

Question: Which “Solubility” value [1] does the source give for `CC(C)C(=O)OC/C=C\[C@]1(O)CC[C@H]2[C@@H]3CCC4=CC(=O)CC[C@@]45Cc4cc(-c6ccc(C#N)cc6)ccc4[C@@H](C[C@@]21C)[C@@H]35` [Reference Compound 3, (Z)-6'-(4-cyanophenyl)-9,11α-dihydro-17β-hydroxy-17α-[3-(1-oxo-2-methylpropoxy)-1-propenyl]-4'H-naphtho[3',2',1':10,9,11]estr-4-en-3-one, reference compound] here?
Answer: The value was 100 °C.

Question: With `CC/C(=C(\c1ccccc1)c1ccc(OCCN(C)C)cc1)c1ccccc1` [tamoxifen] as the molecule, how does the “response of ZR-75 to tamoxifen” value [5] read?
Answer: Its value is “inhibiting growth”.

From US6096732A, “Steroid esters, process for their production and their pharmaceutical use” (Schering AG, priority 1996, dated 2000)
